Article PMC11357161, “Phytochemical Analysis, Biological Activities, and Docking of Phenolics from Shoot Cultures of Hypericum perforatum L. Transformed by Agrobacterium rhizogenes” (Molecules, 2024)
Marks after values point to notes of the source that are not given here.

Experiments:
Format in all cases: biochemical
α-amylase (α-AM) = α-amylase (α-AM) (Aspergillus oryzae, UniProt P0C1B3); assay: α-AM inhibitory activity in vitro; details: concentration that inhibits 25% of enzyme activity; mean ± SD, three replicates
Protocol: (§1) Shoot methanolic extracts were evaporated in a freeze-dryer (Labconco, Kansas City, MO, USA), and dry extracts were dissolved in 50% dimethyl sulfoxide. […] The protocols for MAO-A, AChE, BChE, TYR, α-AM, α-GL, PL, and CHE inhibitory activities were presented in our previous studies. […] Three replicates were used for all enzyme-inhibitory tests.

[1] = target: T1, monoamine oxidase-A (MAO-A) (Homo sapiens, UniProt P21397); assay: MAO-A inhibitory activity in vitro
T1 sequence (P21397 1-527): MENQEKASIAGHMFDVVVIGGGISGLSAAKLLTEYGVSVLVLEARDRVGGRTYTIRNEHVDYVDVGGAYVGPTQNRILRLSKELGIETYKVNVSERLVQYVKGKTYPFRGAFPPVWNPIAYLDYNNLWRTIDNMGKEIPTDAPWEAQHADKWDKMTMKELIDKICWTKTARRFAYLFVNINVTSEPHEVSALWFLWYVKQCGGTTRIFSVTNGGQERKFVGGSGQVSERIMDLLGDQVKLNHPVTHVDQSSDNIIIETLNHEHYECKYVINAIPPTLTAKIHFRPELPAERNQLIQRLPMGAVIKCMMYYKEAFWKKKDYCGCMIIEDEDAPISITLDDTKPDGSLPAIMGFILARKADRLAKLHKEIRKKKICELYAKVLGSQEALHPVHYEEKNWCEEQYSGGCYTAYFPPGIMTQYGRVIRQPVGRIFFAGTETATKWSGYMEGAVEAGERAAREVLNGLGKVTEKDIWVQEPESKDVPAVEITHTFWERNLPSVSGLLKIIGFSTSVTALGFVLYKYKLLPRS
Protocol: as §1

[2] = target: T2, cholesterol esterase (CHE) (Homo sapiens, UniProt P19835); assay: CHE inhibitory activity in vitro; details: concentration that inhibits 50% of enzyme activity; mean ± SD, three replicates
T2 sequence (P19835 21-753): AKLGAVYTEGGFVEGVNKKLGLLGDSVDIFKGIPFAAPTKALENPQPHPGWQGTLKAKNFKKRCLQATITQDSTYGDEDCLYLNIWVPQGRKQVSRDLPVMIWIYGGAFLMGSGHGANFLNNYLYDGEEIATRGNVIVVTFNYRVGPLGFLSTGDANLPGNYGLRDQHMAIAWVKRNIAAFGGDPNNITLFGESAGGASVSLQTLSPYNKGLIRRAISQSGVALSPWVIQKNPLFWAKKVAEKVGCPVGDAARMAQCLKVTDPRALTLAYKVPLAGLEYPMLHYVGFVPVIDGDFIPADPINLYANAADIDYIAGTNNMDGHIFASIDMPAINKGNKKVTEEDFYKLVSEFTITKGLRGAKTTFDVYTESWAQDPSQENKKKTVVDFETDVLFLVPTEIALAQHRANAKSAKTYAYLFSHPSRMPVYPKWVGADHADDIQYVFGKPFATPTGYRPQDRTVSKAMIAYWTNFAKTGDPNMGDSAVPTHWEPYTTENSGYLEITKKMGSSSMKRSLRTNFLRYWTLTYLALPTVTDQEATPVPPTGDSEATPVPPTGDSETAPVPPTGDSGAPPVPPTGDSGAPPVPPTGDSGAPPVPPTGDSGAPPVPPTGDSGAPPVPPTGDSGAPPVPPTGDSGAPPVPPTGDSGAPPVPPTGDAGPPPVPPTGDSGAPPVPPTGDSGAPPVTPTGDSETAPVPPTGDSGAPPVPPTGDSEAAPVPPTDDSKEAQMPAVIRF
Protocol: as §1

C[C@H]1O[C@H](O[C@H]2[C@H](O)[C@@H](O)[C@@H](O[C@H]3[C@H](O)[C@@H](O)C(O)O[C@@H]3CO)O[C@@H]2CO)[C@H](O)[C@@H](O)[C@@H]1N[C@H]1C=C(CO)[C@@H](O)[C@H](O)[C@H]1O (stereo partly drawn) [Acarbose] was tested, and the “α-AM (IC25)” value (α-amylase (α-AM)) was 6.77 ± 0.76 ^a µg·mL^−1.
Work on Oc1ccc(Cl)cc1Cl [DCP, 2,4-dichlorophenol] yielded an IC50 [1] of 226 µM.
CCC(C)(C)C(=O)O[C@H]1C[C@@H](C)C=C2C=C[C@H](C)[C@H](CC[C@@H]3C[C@@H](O)CC(=O)O3)[C@H]21 [Simvastatin] showed an IC50 [2] of 383 µM.
